For 49 molecules, IC50 results are on record in BindingDB's records for patent US20250091994 (Kobe University, 2025).

Broadly, the IC50 is the concentration that gives 50% inhibition. Low values mean greater potency in that assay, high ones weaker potency in that assay.

Chain of GTPase HRas [G12V] (P01112 whole entry G12V, looked up): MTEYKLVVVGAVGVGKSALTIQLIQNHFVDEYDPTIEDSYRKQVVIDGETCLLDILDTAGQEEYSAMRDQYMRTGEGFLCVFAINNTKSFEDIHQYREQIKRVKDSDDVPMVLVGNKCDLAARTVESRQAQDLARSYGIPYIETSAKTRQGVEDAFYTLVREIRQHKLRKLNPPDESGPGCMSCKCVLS

This assay concerns the target GTPase HRas [G12V] (Homo sapiens, UniProt P01112, G12V). In words: In Vitro Ras-Raf Binding Inhibitory Activity Assay. The method, then: The in vitro Ras-Raf binding inhibitory activity of the compound of the present invention was evaluated by an ELISA method described below. GST-c-Raf-1 RBD diluted with a Ras-Raf binding buffer (50 mM Tris-HCl pH7.4, 150 mM NaCl, 5 mM MgCl2, 1 mM EDTA, and 1% Triton-X100) was added to each well of a glutathione-coated 96-well plate (Thermo Fisher Scientific.), and was incubated at 30° C. for 1 hour, to immobilize Raf on the well. The unbound free Raf was eliminated by washing the well with the Ras-Raf binding buffer three times. Subsequently, GTPTS-bound HRasG12V diluted with the Ras-Raf binding buffer and each compound solution (final DMSO concentration: 10%) were applied to each well, and the resulting mixture was then incubated at 30° C. for 1 hour, so that Ras and Raf were allowed to bind to each other. Thereafter, the plate was washed with the Ras-Raf binding buffer twice, and was then subjected to a blocking treatment at room temperature for 20 minutes, using TBS-Tween {10 mM Tris-HCl pH 7.4, 150 mM NaCl, and 0.05% (w/v) Tween-20}-5% (w/v) bovine serum albumin (BSA). After that, an anti-HRas antibody (C-20, Santa Cruz) or an anti-HRas antibody (259, Santa Cruz), which had been 1000 times diluted with TBS-Tween-5% BSA, was added to the reaction mixture, and incubated at room temperature for 1 hours. After the treatment with the primary antibody, the plate was washed with TBS-Tween-5% BSA three times, and a horseradish peroxidase-labeled secondary antibody against rabbit immunoglobulin G (GE Healthcare) of 1000 times diluted with TBS-Tween-5% BSA, was added to the plate, followed by incubation at room temperature for 1 hour. After the treatment with the secondary antibody, the plate was washed with TBS-Tween-5% BSA three times, and a substrate solution (TMB) was then added to the plate, followed by incubation at room temperature for 15 minutes for coloration. Finally, 2 M H2SO4 was added to stop color development (coloration reaction kit: Nacalai Tesque).
Turning to `CC(=O)N1/C(=C\c2cc(N3CCC(C#N)CC3)c3cc(C(=O)N4CCOCC4)ccc3n2)C(=O)c2ccccc21` [US20250091994, Example 87], the IC50 is 2100 nM.

`COc1cc(/C=C2/C(=O)c3ccccc3N2C(C)=O)ccc1OCC(=O)Nc1ccccc1` [US20250091994, Example 15]: the IC50 is 7300 nM.

`CC(=O)N1/C(=C\c2ccc(OCC(=O)N3CCOCC3)cn2)C(=O)c2ccccc21` [US20250091994, Example 22]: the IC50 turned out to be 13000 nM.

Regarding `CCOc1cc(/C=C2/C(=O)c3ccccc3N2C(C)=O)ccc1OCC(N)=O` [US20250091994, Example 13], the IC50 is 2500 nM.

As to `CC(=O)N1/C(=C\c2cc(-c3ccccc3-c3ccccc3)c3cc(C(=O)N4CCN(C)CC4)ccc3n2)C(=O)c2ccccc21` [US20250091994, Example 140], the IC50 is 1300 nM.

`CC(=O)N1/C(=C\c2ncc(C(=O)N3CCOCC3)s2)C(=O)c2ccccc21` [US20250091994, Example 38] yielded an IC50 of 3700 nM.

Take `CC(=O)N1C(=Cc2ccc3ccc(C(=O)N4CCOCC4)cc3n2)C(=O)c2ccccc21` [US20250091994, Example 62]: the IC50 came to 5600 nM.

`COc1cc(/C=C2/C(=O)c3ccccc3N2C(C)=O)ccc1CCC(N)=O` [US20250091994, Example 31] returned an IC50 of 13000 nM.

`CC(=O)N1C(=Cc2cc(-c3ccccc3)c3cc(C(=O)N4CCOCC4)ccc3n2)C(=O)c2ccccc21` [US20250091994, Example 83] returned an IC50 of 840 nM.

In turn, `CC(=O)N1/C(=C/c2nc3cc(C(=O)N4CCOCC4)ccc3s2)C(=O)c2ccccc21` [US20250091994, Example 48] came in with an IC50 of 3500 nM.

Turning to `CC(=O)N1/C(=C\c2cc(C(N)=O)c3cc(C(=O)N4CCOCC4)ccc3n2)C(=O)c2ccccc21` [US20250091994, Example 111], the IC50 worked out at 1000 nM.

`CC(=O)N1C(=Cc2nc3cc(/C=C/C(=O)N4CCOCC4)ccc3s2)C(=O)c2ccccc21` [US20250091994, Example 109]: the IC50 is 460 nM.

`COc1cc(/C=C2/C(=O)c3ccccc3N2C(C)=O)ccc1OC[S+](C)[O-]` (centres undefined) [US20250091994, Example 25]: the IC50 came to 5900 nM.

For `CC(=O)N1/C(=C\c2ccc3cc(C(=O)N4CCC(C(=O)O)CC4)ccc3n2)C(=O)c2ccccc21` [US20250091994, Example 129], the IC50 amounted to 1500 nM.

In turn, `CCn1cc(-c2cc(/C=C3/C(=O)c4ccccc4N3C(C)=O)nc3ccc(C(=O)N4CCOCC4)cc23)cn1` [US20250091994, Example 178] registered an IC50 of 800 nM.

`CC(=O)N1/C(=C/c2nc3ccc(/C=C/C(=O)N4CCOCC4)cc3s2)C(=O)c2ccccc21` [US20250091994, Example 108]: the IC50 was 2600 nM.

Take `CC(=O)N1CCc2ccc(-c3cc(/C=C4/C(=O)c5ccccc5N4C(C)=O)nc4ccc(CNC5CCOCC5)cc34)cc2C1` [US20250091994, Example 211]: the IC50 was determined as 600 nM.

`CC(=O)N1/C(=C\c2ccc3cc(C(=O)N4CCC(c5ccccc5)CC4)ccc3n2)C(=O)c2ccccc21` [US20250091994, Example 114] had an IC50 of 29000 nM.

`COc1cc(C=C2C(=O)c3ccc(F)cc3N2C(C)=O)ccc1OCC(=O)N1CCOCC1` [US20250091994, Example 103] displayed an IC50 of 10000 nM.

`CC(=O)N1CCc2cc(-c3cc(/C=C4/C(=O)c5ccccc5N4C(C)=O)nc4ccc(CNC5CCOCC5)cc34)ccc2C1` [US20250091994, Example 209]: the IC50 is 400 nM.

Molecule `CC(=O)N1CCc2c(cccc2-c2cc(/C=C3/C(=O)c4ccccc4N3C(C)=O)nc3ccccc23)C1` [US20250091994, Example 193] returned an IC50 of 700 nM.

`CC(=O)N1/C(=C\c2cc(-c3ncccn3)c3cc(C(=O)N4CCOCC4)ccc3n2)C(=O)c2ccccc21` [US20250091994, Example 189] had an IC50 of 1500 nM.

`CC(=O)N1/C(=C/c2nc3cc(/C=C/C(=O)N4CCOCC4)ccc3s2)C(=O)c2ccccc21` [US20250091994, Example 110] gave an IC50 of 420 nM.

`CC(=O)N1/C(=C/c2nc3ccc(C(=O)N4CC(C)OC(C)C4)cc3s2)C(=O)c2ccccc21` (centres undefined) [US20250091994, Example 101] had an IC50 of 780 nM.

`COCC(O)CN1CCN(C(=O)c2ccc3nc(/C=C4/C(=O)c5ccccc5N4C(C)=O)cc(-c4ccccc4-c4ccccc4)c3c2)CC1` (centres undefined) [US20250091994, Example 96]: the IC50 was 350 nM.

`CC(=O)N1CCc2ccc(-c3c(C(=O)N4CCOCC4)ccc4nc(/C=C5/C(=O)c6ccccc6N5C(C)=O)ccc34)cc2C1` [US20250091994, Example 201] gave an IC50 of 800 nM.

In turn, `CC(=O)N1CCc2cc(-c3cc(/C=C4/C(=O)c5ccccc5N4C(C)=O)nc4ccc(C(=O)N5CCOCC5)cc34)ccc2C1` [US20250091994, Example 144] gave an IC50 of 800 nM.

`CC(=O)N1/C(=C\c2ccc3cc(C(=O)N4CCN(C5COC5)CC4)ccc3n2)C(=O)c2ccccc21` [US20250091994, Example 41]: the IC50 stood at 4700 nM.

`CC(=O)N1/C(=C\c2ccc3cc(C(=O)O)ccc3n2)C(=O)c2ccccc21` [US20250091994, Example 127] displayed an IC50 of 2100 nM.

The molecule `CC(=O)N1/C(=C\c2ccc3cc(CN(C(C)=O)C4CCOCC4)ccc3n2)C(=O)c2ccccc21` [US20250091994, Example 75] gave an IC50 of 2100 nM.

Regarding `CC(=O)N1CCc2c(cccc2-c2cc(/C=C3/C(=O)c4ccccc4N3C(C)=O)nc3ccc(C(=O)N4CCOCC4)cc23)C1` [US20250091994, Example 146], the IC50 was found to be 500 nM.

For the molecule `CC(=O)N1/C(=C/c2cc(-c3ccnc4ccccc34)c3cc(C(=O)N4CCOCC4)ccc3n2)C(=O)c2ccccc21` [US20250091994, Example 117], the half-maximal inhibitory concentration (IC50) is 1100 nM.

`CC(=O)N1C(=Cc2cc(-c3ccc4c(c3)CCN(C)C4)c3cc(C(=O)N4CCOCC4)ccc3n2)C(=O)c2ccccc21` [US20250091994, Example 173] came in with an IC50 of 400 nM.

In the case of `CC(=O)N1/C(=C/c2nc(C(=O)N3CCOCC3)cs2)C(=O)c2ccccc21` [US20250091994, Example 55], the IC50 stood at 6400 nM.

Take `COc1cc(/C=C2/C(=O)c3ccccc3N2C(C)=O)ccc1OCS(C)(=O)=O` [US20250091994, Example 24]: the IC50 came to 2100 nM.

In turn, `CC(=O)N1C(=Cc2cc(-c3ccccc3-c3cnn(C)c3)c3cc(CNC4CCOCC4)ccc3n2)C(=O)c2ccccc21` [US20250091994, Example 206] showed an IC50 of 2000 nM.

`COc1cc(/C=C2/C(=O)c3ccccc3N2C(=O)c2ccccc2)ccc1OCC(N)=O` [US20250091994, Example 49] returned an IC50 of 13000 nM.

`CC(=O)N1/C(=C\c2cc(-c3ccccc3-c3ccccc3)c3cc(C(=O)N4CCC(C(=O)O)CC4)ccc3n2)C(=O)c2ccccc21` [US20250091994, Example 142] registered an IC50 of 800 nM.

Molecule `CC(=O)N1/C(=C\c2cc(-c3ccncc3)c3cc(C(=O)N4CCOCC4)ccc3n2)C(=O)c2ccccc21` [US20250091994, Example 184] showed an IC50 of 900 nM.

With `COC1(COC(=O)N2CCN(C(=O)c3ccc4nc(/C=C5/C(=O)c6ccccc6N5C(C)=O)ccc4c3)CC2)COC1` [US20250091994, Example 120], the IC50 was 2200 nM.

Molecule `COc1cc(/C=C2/C(=O)c3ccccc3N2C(C)=O)ccc1/C=C/C(N)=O` [US20250091994, Example 20] gave an IC50 of 10000 nM.

Consider `CC(=O)N1C(=Cc2cc(-c3ccccc3-c3ccccc3)c3cc(C(=O)NC4CCN(C5COC5)CC4)ccc3n2)C(=O)c2ccccc21` [US20250091994, Example 97], for which the IC50 is 510 nM.

`CC(=O)N1C(=Cc2cc(-c3cncnc3)c3cc(C(=O)N4CCOCC4)ccc3n2)C(=O)c2ccccc21` [US20250091994, Example 185] returned an IC50 of 1600 nM.

In turn, `CC(=O)N1C(=Cc2cc(-c3cccnc3-c3ccccc3)c3cc(C(=O)N4CCOCC4)ccc3n2)C(=O)c2ccccc21` [US20250091994, Example 94] showed an IC50 of 660 nM.

Regarding `CC(=O)N1/C(=C\c2ccc3cc(CNC(=O)CN4CCOCC4)ccc3n2)C(=O)c2ccccc21` [US20250091994, Example 80], the concentration for half-maximal inhibition (IC50) stood at 900 nM.

In the case of `CC(=O)N1/C(=C/c2nc3ccc(CNC4CCOCC4)cc3s2)C(=O)c2ccccc21` [US20250091994, Example 135], the IC50 was determined as 790 nM.

With `CC(=O)N1C(=Cc2ccc3cc(/C=C/C(=O)NC4CCN(C5COC5)CC4)ccc3n2)C(=O)c2ccccc21` [US20250091994, Example 79], the IC50 came out at 1100 nM.

`CC(=O)N1C(=Cc2ccc3cc(C(=O)N4CCNCC4)ccc3n2)C(=O)c2ccccc21` [US20250091994, Example 139]: the IC50 amounted to 6000 nM.

As for `CC(=O)N1/C(=C\c2ccc3cc(CCC(=O)N4CCOCC4)ccc3n2)C(=O)c2ccccc21` [US20250091994, Example 45], the IC50 turned out to be 1200 nM.
